Measurements taken from ChEMBL document CHEMBL5528066, “Discovery of Novel N-(Anthracen-9-ylmethyl) Benzamide Derivatives as ZNF207 Inhibitors Promising in Treating Glioma” (J Med Chem, 2024).
Active and inactive are the calls of the source. No cut-off for these calls is given here.

Key:
[1] = test system: LN-229; experiment: Antitumor activity against human LN-229 cells xenografted in BALB/c nude mouse assessed as reduction in proportion of p-H3 positive cells at 150 mg/kg, ip administered twice a week and measured after 49 days by immunohistochemistry analysis; type: functional, organism-based; conditions: time 49.0 day
[2] = test system: Hs 683; experiment: Inhibition of sphere formation in human Hs 683 cells at 1 uM measured after 10 days in well containing 1000 cells by microscopic analysis; type: functional, cell-based; conditions: time 10.0 day
[3] = test system: U-251; experiment: Inhibition of sphere formation in human U-251MG cells at 8 uM measured after 10 days in well containing 10 cells by microscopic analysis; type: functional, cell-based; conditions: time 10.0 day
[4] = test system: U-251; experiment: Inhibition of sphere formation in human U-251MG cells at 1 uM measured after 10 days in well containing 1 cells by microscopic analysis; type: functional, cell-based; conditions: time 10.0 day

N#CC1(C(=O)NCCC2CCN(Cc3ccccc3)CC2)CC2(Br)c3ccccc3C1c1ccccc12 (racemic)
Activity [1]: Active
inhibition [2]: inactive
inhibition [3]: Active
inhibition [4]: Active
